Patent US20050221355A1, “cDNA for human methylenetetrahydrofolate reductase and uses thereof” (McGill University, priority 1994, published 2005)

Experiments:
[1] = tested on: colon carcinoma lines that do not carry the 677C/T mutation in MTHFR; assay: Methotrexate added to colon carcinoma lines in culture (cell kill), lines without the MTHFR mutation; type: cell-based; conditions: colon carcinoma lines without the 677C/T MTHFR mutation; read-out: IC50 (concentration needed to kill half the cells)
Protocol: (§1) Various doses of methotrexate (a drug used in treatment of cancer and arthritis, possibly other diseases) were added to colon carcinoma lines in culture. […] To extrapolate to the human condition, patients with this MTHFR mutation might require lower doses of methotrexate for therapy, or might be subject to methotrexate toxicity at high doses.

[2] = tested on: colon carcinoma lines that carry the 677C/T mutation in MTHFR; assay: Methotrexate added to colon carcinoma lines in culture (cell kill), lines with the MTHFR mutation; type: cell-based; conditions: colon carcinoma lines with the 677C/T MTHFR mutation; read-out: IC50 (concentration needed to kill half the cells)
Protocol: as §1

human MTHFR = assay: Enzymatic and thermolability assay of E. coli extracts expressing wild-type or mutagenized MTHFR cDNA; type: biochemical
Protocol: Overnight cultures of JM105™ containing vector alone, vector+wild-type MTHFR cDNA, or vector+mutagenized cDNA were grown at 370° C. in 2×YT media with 0.05 mg/ml ampicillin. Fresh 10 ml. cultures of each were inoculated with approximately 50 μL of overnight cultures for a starting O.D. of 0.05, and were grown at 370° C. to an O.D. of 1 at 420 nM. Cultures were then induced for 2 hrs. with 1 mM IPTG and pelleted. The cells were resuspended in TE buffer with 2 μg/ml aprotinin and 2 μg/ml leupeptin (3.5×wet weight of cells). Cell suspensions were sonicated on ice for 3×15 sec. to break open cell membranes and then centrifuged for 30 min. at 4° C. to pellet cell debris and unlysed cells. The supernatant was removed and assayed for protein concentration with the Bio-Rad™ protein assay. […] Enzymatic assays were performed by established procedures; pre-treating the extracts at 46° C. for 5 min. before determining activity assessed thermolability. Specific activities (nmol formaldehyde/hr./mg. protein) were calculated for the 2 cDNA-containing constructs after subtraction of the values obtained with vector alone (to subtract background E. Coli MTHFR activity).

| Compound | IC50 [1] [nM] | IC50 [2] [nM] | mean specific activity before heating (human MTHFR; Exp. 1, vector-alone value subtracted) | mean specific activity before heating (human MTHFR; Exp. 2, vector-alone value subtracted) |
| --- | --- | --- | --- | --- |
| CN(Cc1cnc2nc(N)nc(N)c2n1)c1ccc(C(=O)N[C@@H](CCC(=O)O)C(=O)O)cc1 [methotrexate] | ~150 | ~20 |  |  |
| MTHFR: recombinant human methylenetetrahydrofolate reductase, about 70 kDa, expressed in E. coli from the wild-type 2.2 kb cDNA |  |  | 3.8 nmol formaldehyde/hr./mg. protein | 6.2 nmol formaldehyde/hr./mg. protein |
